Experimental data as given in patent publication US20020058020A1, “Isolated amphiphilic peptides derived from the cytoplasmic tail of viral envelope proteins” (priority 1999, published 2002).
Ends that are not written are not given here. R1 = not defined here

Tests used:
[1] = Peptide-induced K+ release from unilamellar liposomes (Example 2); conditions: 22° C.; for % K+ - Release POPC: POPC liposomes; for % K+ - Release POPC:POPG1:1: POPC:POPG 1:1 liposomes; for % K+ - Release POPC:POPG,3:1: POPC:POPG 3:1 liposomes
Experimental: Peptide-induced K′ release from liposomes. Liposomes (see above) were made in 100 nM KCl, 10 mM Tris-HCl, pH 7.5. The external KCl was reduced to less than 0.1 mM by two passages through a PD10 column (Pharmacia Biotech AB, Uppsala, Sweden) equilibrated in NaCl buffer (100 mM NaCl, 10 mM Tris-HCl, pH 7.5). Potassium release from liposomes was detected by a K′-selective microelectrode (Micro-electrode Inc.) and recorded on VHS tape using a pulse-code modulator. Peptides were assayed at 10 μM and 30 μM.
Unilamellar liposomes formed from (i) POPC; (ii) POPC and POPG at a molar ratio of POPC: POPG of 3:1, or (iii) POPC and POPG at a molar ratio of POPC: POPG of 1:1 were prepared in 100 mM KC1 according to the procedure described in Example 1. Peptide-induced K+ release from the liposomes also was detected according to the procedure described in Example 1. All measurements were carried out at 22° C.

[2] = Circular dichroism analysis of α-helical content; assay type: physicochemical; conditions: for secondary structure by CD (in words): aqueous vs liposome environment
Experimental: A. Membrane-Dependent Formation Of An α-Helical Structure By Peptide 598-616 As measured By Circular Dichroism (CD). The plot represents an average of 9 CD spectra for 50 μM peptide 598-616 in an aqueous solution (20 mM NaPO4,pH 7, dashed line), and in presence of liposomal membrane vesicles (POPG/POPC [1:3] liposomes in 20 mM Na2 PO4, pH 7.4; lipid to peptide molar ratio 100:1; solid line). The measurements were obtained for wavelength 195-250 nm at 20 mdeg sensitivity.
The peptides for circular dichroism (CD) analysis were used at a final concentration of 50 μM. The stock solution of extruded liposomes at 50 mg/ml was used. The final peptide-to-lipid molar ratio was 1/100 in 20 mM Na2PO4 buffer. CD spectra were obtained using a Jasco J-600 CD spectrometer. Samples were scanned from 250 nm to 195 nm using cuvettes with a path length of 1 mm. Each result represents an average of 9 scans.
To analyze the secondary structure of the peptides corresponding to MoMuLV cytoplasmic tail segments, the peptides 598-616 and 617-632 were evaluated by CD spectroscopy. The CD spectrum produced by the peptide 598-616 absorption of polarized light in an aqueous environment is characteristic of a random coil conformation (FIG. 2A, dotted line). […] The estimated percent α-helicity for peptide 598-616 is nearly 60%. Similar α-helical properties have been observed for the lytic amphiphilic segments from HIV-1 env cytoplasmic tail and the active component of bee venom, melittin (Eisenberg, et al., Biopolymers, Vol. 29, pgs. 171-177 (1992)). Thus, the computer-predicted α-helical structure for the region 598-616 is confirmed for peptide 598-616 by CD analysis in the presence of membranes.

[3] = Electron paramagnetic resonance analysis of spin labeled peptides with liposomes; assay type: physicochemical; conditions: for aggregation state by EPR (in words): membrane-bound state or solution
Experimental: B. Spin-Labeled Peptide 598-616 Associates With Membranes As Determined By Electron Paramagnetic Resonance (EPR) Analysis. […]; lipid to peptide molar ratio 100:1; solid line). The arrow marks the position of a small component of free spin.
Spin labeled peptides (50 μM) diluted in buffer (50mM NaPO4, 100 mM NaCl, pH 7.4) were added to the extruded liposomes at a peptide-to-lipid molar ratio of greater than 1/100. X-band electron paramagnetic resonance (EPR) spectra were recorded at room temperature. The spin accessibility parameter (II) was determined for 20 mM nickel ethylenediaminediacetic acid, or NiEDDA, and O2 in equilibrium with air as previously described (Farahbakhsh, et al., Photochemistry and Photobiolocy, Vol. 56, pgs. 1019-1033 (1992)). The topology or context parameter φ was calculated as φ=ln [II(O2)/II(NiEDDA)] (Altenbach, et al., Proc. Nat. Acad. Sci., Vol. 91, pgs. 1667-1671 (1994)).
The structural features of the peptide 598-616 bound to membranes were investigated further by EPR analysis of corresponding peptides modified to contain single R1 nitroxide side chains at the positions indicated in FIG. 2C. For each labeled peptide in solution, the EPR spectrum consisted of three sharp resonance lines characteristic of a random coil for peptides containing R1 (Farahbakhsh, et al., Biochemistry, Vol. 34, pgs. 509-516 (1995)). A representative example is shown by the dotted line in FIG. 2B for the V606-R1 peptide. […] Judging from the line shapes, the contribution from the unbound peptide is very small, less than 1% (arrow FIG. 2B). All peptides 598-616 gave similar effects, although the individual line shapes varied (data not shown).
Spin-spin interactions between nitroxides result in spectral broadening over and above that due to motional effects (Mchaourab, et al., Biochemistry, Vol. 36, pgs. 307-316 (1997)).

[4] = Peptide-induced K+ release from liposomes (Example 1); assay type: biochemical; conditions: for % K+-release: liposomes POPG/POPC 1:3, 10 mg/ml, loaded with 100 mM KCl, total release with 0.1 M Triton X-100, <2% not detectable
Experimental: Liposomes were prepared from 1-Palmitoyl-2-Oleoyl-sn-Glycero-3-(Phospho-rac-(1-glycerol)) (POPG) and 1-Palmitoyl-2-Oleoyl-sn-Glycero-3-Phosphocholine (POPC) (Avanti Polar Lipids Inc., Birmingham, Ala.). The lipid-chloroform solutions were mixed at a molar ratio of 1:3 (POPG:POPC), dried under N2 and vacuum, sonicated, and taken through freeze-thaw cycles repeated a minimum of 5 times.
Peptide-induced K′ release from liposomes. […] Enzymol., Vol. 235, pgs. 699-713 (1994).
^b Percentage of the intraliposomal K^+ release induced by […] peptides from liposomes (POPG/POPC 1:3, 10 mg/ml) loaded with 100 mM KC1 and dialyzed against 100 mM NaCl buffer. […] . Total K^+ release was obtained with 0.1 M Triton X-100.
A novel approach was developed to measure the membrane activity of peptide 598-616. Peptide-induced release of K^+ from KCl-loaded lipid vesicles was detected using a K^+-selective electrode. The addition of 10 μM wild type peptide 598-616 causes 29% K^+ content release. At a concentration of 30 μM, about 70% K^+ content is released from liposomes (data not shown). For comparison, 10 μM melittin, a lytic component of bee venom, causes 31% K^+ content release.

NIH3T3 cells [5] = assay: Syncytia formation in env-transfected NIH3T3 cells; assay type: cell-based; conditions: relative fusion efficiency, normalized to 616* = 100
NIH3T3 cells [6] = assay: Transduction assay, β-gal titer on NIH3T3 cells; assay type: cell-based; conditions: WT = 100
[7] = tested on: XC6 cell co-cultured with env-transfected 293T cells; assay: End point cell-to-cell fusion assay, 293T/XC6 co-culture; conditions: relative fusion efficiency, WT = 100
Experimental: Viral particles were obtained from 293T cells transfected transiently (n=3−5) with the expression plasmids for env, gag-pol, and β-gal, with wild type or mutant (616*, 601*, 598*, 595SR*, 578*, GLA ecto) env. Transduction efficiency of these virions (white bars=titers) was tested on NIH3T3 cells. The Env fusogenicity (filled bars =% fusion) was measured by expressing Env only in 293T cells. The indicator XC6 cells were added 24 hours post-transfection, were fixed 12 hours later and scored microscopically on ten 2 mm^2 grids for syncytia (cells with four or more nuclei).
Cell-To-Cell Fusion Assays For the end point fusion assay, 5×10^5 XC6 cells were added to the env transfected 293 T cells 20 hrs. post-transfection, and stained with methylene blue (0.01% in methanol) at about 36 hours post-transfection for syncytia (cells with 4 or more nuclei) scoring.
The end point fusion assay measures env-induced cell-to-cell fusion between env-transfected 293T cells and the ecotropic receptor expressing XC cells at 36 hrs post-transfection.

[8] = tested on: env-transfected 293T cells; assay: Cell surface envelope protein expression by indirect immunofluorescence; conditions: relative, WT = 100
Experimental: NIH3T3 cells (1H10^5) , 293T or 293/12 (1H10^6) per 60 mm2 plates were transfected according to the Ca(PO4)2 transfection protocol of 5′-3′ Inc. (Boulder, Colo.) (day 1). For cell surface expression and co-culture experiments, 15 μg env expression plasmid was used.
Cell Surface Expression And The Analysis Of Viral Envelope Particle Incorporation Assays were done as described in Januszeski, et al., J. Virol., Vol. 71, pgs.

| Compound | % K+ - Release POPC [1] [%] | % K+ - Release POPC:POPG1:1 [1] [%] | % K+ - Release POPC:POPG,3:1 [1] [%] | also measured |
| --- | --- | --- | --- | --- |
| 598-616 D608C: peptide 598-616 with D608C substitution (ILNRLVQFVKCRISVVQAL; UniProt P03385 631-649, looked up, variant D608C) | 5 | 11 | 7 |  |
| 598-632: peptide representing the whole cytoplasmic tail region (598-632) [Peptide 598-632] |  |  |  | secondary structure by CD (in words) [2]: higher helical content in the presence of membrane vesicles than the peptide 598-616 alone; aggregation state by EPR (in words) [3]: monomeric association with the membrane |
| 598-632 Q604C: peptide 598-632 with Q604C substitution | 6 | 31 | 30 |  |
| 598-611: peptide of MoMuLV env residues 598-611 (ILNRLVQFVKDRIS; UniProt P03385 631-644, looked up, fragment) [Peptide 598-611] |  | 22 | 13 |  |
| Magainin [reference compound] | 8 | 51 | 43 |  |
| 598-616 R601C: peptide 598-616 with R601C substitution (ILNCLVQFVKDRISVVQAL; UniProt P03385 631-649, looked up, variant R601C) | 32 | 13 | 10 |  |
| 598-616 F605C: peptide 598-616 with F605C substitution (ILNRLVQCVKDRISVVQAL; UniProt P03385 631-649, looked up, variant F605C) | 8 | 7 | 4 |  |
| CC[C@H](C)[C@H](NC(=O)CN)C(=O)NCC(=O)N[C@@H](C)C(=O)N[C@H](C(=O)N[C@@H](CC(C)C)C(=O)N[C@@H](CCCCN)C(=O)N[C@H](C(=O)N[C@@H](CC(C)C)C(=O)N[C@H](C(=O)N[C@H](C(=O)NCC(=O)N[C@@H](CC(C)C)C(=O)N1CCC[C@H]1C(=O)N[C@@H](C)C(=O)N[C@@H](CC(C)C)C(=O)N[C@H](C(=O)N[C@@H](CO)C(=O)N[C@@H](Cc1c[nH]c2ccccc12)C(=O)N[C@H](C(=O)N[C@@H](CCCCN)C(=O)N[C@@H](CCCNC(=N)N)C(=O)N[C@@H](CCCCN)C(=O)N[C@@H](CCCNC(=N)N)C(=O)N[C@@H](CCC(N)=O)C(=O)N[C@@H](CCC(N)=O)C(N)=O)[C@@H](C)CC)[C@@H](C)CC)[C@@H](C)O)[C@@H](C)O)C(C)C)C(C)C [melittin, reference compound] | 31 | 27 | 31 | K+ content release ([4]; 10 μM peptide): 31%; % K+-release [4]: 30.9 ± 2.1% |
| WT: wild type MoMuLV ecotropic envelope protein |  |  |  | Fusion NIH3T (NIH3T3 cells [5]): 0; Titer (relative β-gal titer) (NIH3T3 cells [6]): 100; Fusion 293T/XC6 [7]: 100; Cell Surface Expression [8]: 100 |
| 602-616: peptide of MoMuLV env residues 602-616 (LVQFVKDRISVVQAL; UniProt P03385 635-649, looked up, fragment) [Peptide 602-616] | 2 | 5 | 4 |  |
| Triton X-100 [reference compound] | 100 | 100 | 100 | % K+-release [4]: 100% |
| 598-616 R609A: peptide 598-616 with Arg 609 Ala mutation (ILNRLVQFVKDAISVVQAL; UniProt P03385 631-649, looked up, variant R609A) | 11 | 0 | 0 | loss of K+ release relative to wild type peptide 598-616 [4]: 75%; % K+-release [4]: 9.9 ± 1.8% |
| 598-616 Q604C: peptide 598-616 with Q604C substitution (ILNRLVCFVKDRISVVQAL; UniProt P03385 631-649, looked up, variant Q604C) | 29 | 28 | 20 |  |
| V606-R1 peptide: nitroxide-labeled peptide 598-616 V606C(R1) (ILNRLVQFC(R1)KDRISVVQAL; reading uncertain; UniProt P03385 631-649, looked up, variant V606C) |  |  |  | contribution from the unbound peptide ([3]; upon addition to liposomes, judged from EPR line shapes): less than 1% |
| ILNRLVQFVKDRISVVQAL (Moloney murine sarcoma virus) [Peptide 598-616] | 9 | 24 | 13 | K+ content release ([4]; 10 μM peptide): 29%; K+ content release ([4]; 30 μM peptide, data not shown): about 70%; % K+-release [4]: 29.3 ± 3.6%; estimated percent α-helicity ([2]; 50 μM peptide in presence of liposomes, lipid to peptide 100:1): ~60%; secondary structure by CD (in words) [2]: becomes α-helical; aggregation state by EPR (in words) [3]: monomeric association with the membrane |
